Results taken from patent US9670157B2, “Benzylamine derivatives” (KALVISTA PHARMACEUTICALS LIMITED, priority 2013, dated 2017).

Tests used:
[1] = Pharmacokinetics following a single oral dose in rats; assay type: in vivo; conditions: rat, nominal 10 mg/kg, male Sprague-Dawley rats, plasma
Protocol: Pharmacokinetic studies of selected examples were performed to assess the pharmacokinetics following a single oral dose in male Sprague-Dawley rats. Typically, either two or three rats were given a single po dose of 5 mL/kg of a nominal 2 mg/mL (10 mg/kg) composition of test compound in either 5% cremophor:5% ethanol:90% phosphate buffered saline or 20% Labrasol:80% water. Following dosing, blood samples were collected over a period of 8 hours. Typical sample times include 5, 15 and 30 minutes then 1, 2, 4, 6 and 8 hours. Following collection, blood samples were centrifuged and the plasma fraction analysed for concentration of test compound by LCMS.

Human plasma kallikrein = Human plasma kallikrein (Homo sapiens (Human), UniProt P03952); assay: Determination of the IC50 for Plasma Kallikrein; assay type: biochemical; conditions: 37° C., fluorogenic substrate H-DPro-Phe-Arg-AFC; read-out: IC50 (human PKal)
Protocol: Human plasma kallikrein (Protogen) was incubated at 37° C. with the fluorogenic substrate H-DPro-Phe-Arg-AFC and various concentrations of the test compound. Residual enzyme activity (initial rate of reaction) was determined by measuring the change in optical absorbance at 410 nm and the IC50 value for the test compound was determined.

Human KLK1 = Human KLK1 (Homo sapiens (Human), UniProt P06870); assay: Determination of the IC50 for KLK1; assay type: biochemical; conditions: 37° C., fluorogenic substrate H-DVal-Leu-Arg-AFC
Procedure, shortened: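 KLK1 inhibition was measured in vitro following standard published methods. Human KLK1 (Callbiochem) was incubated at 37° C. with the fluorogenic substrate H-DVal-Leu-Arg-AFC in the presence of a range of test compound concentrations. Residual enzyme activity, taken as the initial reaction rate, was followed by the change in optical absorbance at 410 nm, and IC50 values were derived.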

thrombin = thrombin (Homo sapiens (Human), UniProt P00734); assay: Determination of Enzyme Selectivity: thrombin; assay type: biochemical; conditions: substrate at Km concentration
Protocol: (§1) Human serine protease enzymes plasmin, thrombin, trypsin, Factor Xa and Factor XIIa were assayed for enzymatic activity using an appropriate fluorogenic substrate. Protease activity was measured by monitoring the accumulation of liberated fluorescence from the substrate over 5 minutes. The linear rate of fluorescence increase per minute was expressed as percentage (%) activity. The Km for the cleavage of each substrate was determined by standard transformation of the Michaelis-Menten equation.

trypsin = assay: Determination of Enzyme Selectivity: trypsin; assay type: biochemical, Human; conditions: substrate at Km concentration
Protocol: as §1

Factor XIIa = Factor XIIa (Homo sapiens (Human), UniProt P00748); assay: Determination of Enzyme Selectivity: Factor XIIa; assay type: biochemical; conditions: substrate at Km concentration
Protocol: as §1

plasmin = plasmin (Homo sapiens (Human), UniProt P00747); assay: Determination of Enzyme Selectivity: plasmin; assay type: biochemical; conditions: substrate at Km concentration
Protocol: as §1

Human KLK1, sequence (P06870 25-262): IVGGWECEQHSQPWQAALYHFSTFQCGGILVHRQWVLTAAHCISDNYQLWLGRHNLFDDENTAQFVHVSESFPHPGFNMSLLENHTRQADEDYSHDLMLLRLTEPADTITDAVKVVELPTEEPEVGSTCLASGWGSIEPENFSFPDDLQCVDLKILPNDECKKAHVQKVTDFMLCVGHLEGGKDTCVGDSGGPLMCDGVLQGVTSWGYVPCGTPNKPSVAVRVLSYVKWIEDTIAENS
Human plasma kallikrein, sequence (P03952 391-638): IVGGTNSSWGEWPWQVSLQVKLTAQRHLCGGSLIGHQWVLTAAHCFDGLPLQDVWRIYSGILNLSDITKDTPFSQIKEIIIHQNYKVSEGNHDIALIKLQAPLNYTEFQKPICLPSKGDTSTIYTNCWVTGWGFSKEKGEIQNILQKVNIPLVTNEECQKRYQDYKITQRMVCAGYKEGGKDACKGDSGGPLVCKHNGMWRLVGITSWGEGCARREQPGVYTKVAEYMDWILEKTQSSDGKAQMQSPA
Human plasma kallikrein, sequence (P03952 20-390 partner): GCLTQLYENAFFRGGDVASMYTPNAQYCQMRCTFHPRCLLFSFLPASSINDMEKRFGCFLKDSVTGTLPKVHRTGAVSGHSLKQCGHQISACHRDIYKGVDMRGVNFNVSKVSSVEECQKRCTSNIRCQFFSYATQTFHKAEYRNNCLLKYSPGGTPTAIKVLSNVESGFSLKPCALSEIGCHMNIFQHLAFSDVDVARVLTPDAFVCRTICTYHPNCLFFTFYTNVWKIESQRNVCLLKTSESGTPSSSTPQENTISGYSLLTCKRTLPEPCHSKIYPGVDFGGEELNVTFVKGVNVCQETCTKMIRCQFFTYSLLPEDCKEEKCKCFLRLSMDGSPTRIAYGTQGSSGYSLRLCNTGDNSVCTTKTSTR
Factor XIIa, sequence (P00748 373-615): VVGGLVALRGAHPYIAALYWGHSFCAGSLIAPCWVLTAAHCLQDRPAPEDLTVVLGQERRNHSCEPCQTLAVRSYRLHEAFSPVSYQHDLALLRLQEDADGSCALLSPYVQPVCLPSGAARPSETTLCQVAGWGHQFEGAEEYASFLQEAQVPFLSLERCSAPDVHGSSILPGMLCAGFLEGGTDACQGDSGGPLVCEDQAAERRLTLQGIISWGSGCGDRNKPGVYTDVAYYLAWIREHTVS
plasmin, sequence (P00747 581-810): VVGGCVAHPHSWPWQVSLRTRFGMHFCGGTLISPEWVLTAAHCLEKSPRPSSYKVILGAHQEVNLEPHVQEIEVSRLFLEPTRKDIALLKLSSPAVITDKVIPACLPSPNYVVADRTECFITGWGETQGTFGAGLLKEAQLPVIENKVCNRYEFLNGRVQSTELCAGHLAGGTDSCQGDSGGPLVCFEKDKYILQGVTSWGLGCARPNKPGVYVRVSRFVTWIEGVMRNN
plasmin, sequence (P00747 97-580 partner): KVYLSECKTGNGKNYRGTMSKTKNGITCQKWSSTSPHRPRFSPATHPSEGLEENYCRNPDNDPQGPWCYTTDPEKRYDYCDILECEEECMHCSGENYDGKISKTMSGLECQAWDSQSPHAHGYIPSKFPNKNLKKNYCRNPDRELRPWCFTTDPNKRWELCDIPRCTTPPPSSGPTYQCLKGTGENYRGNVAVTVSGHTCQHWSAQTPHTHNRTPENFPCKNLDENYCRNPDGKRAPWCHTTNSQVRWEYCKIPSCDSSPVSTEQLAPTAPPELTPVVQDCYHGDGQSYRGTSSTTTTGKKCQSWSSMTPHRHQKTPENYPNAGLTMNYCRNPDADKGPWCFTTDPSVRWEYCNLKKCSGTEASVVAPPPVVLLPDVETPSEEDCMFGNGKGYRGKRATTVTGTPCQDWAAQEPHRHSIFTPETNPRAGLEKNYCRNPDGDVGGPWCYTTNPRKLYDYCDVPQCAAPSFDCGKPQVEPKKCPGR

IC50 (Human plasma kallikrein) [µM] | IC50 (Human KLK1) [µM] | Compound | further results
0.17 | > 10 | Cc1cc(C(=O)NCc2ccc(CN)cc2)c(C)n1Cc1csc(-c2ccsc2)n1 [Example 37, 2,5-Dimethyl-1-(2-thiophen-3-yl-thiazol-4-ylmethyl)-1H-pyrrole-3-carboxylic acid 4-aminomethyl-benzylamide] | Cmax [1]: 0.171 µg/mL; Tmax [1]: 3.5 h
0.196 | > 10 | Cc1cc(C(=O)NCc2ccc(CN)nc2)c(C)n1Cc1csc(-c2ccccc2)n1 [Example 43, 2,5-Dimethyl-1-(2-phenyl-thiazol-4-ylmethyl)-1H-pyrrole-3-carboxylic acid (6-aminomethyl-pyridin-3-ylmethyl)-amide] | Cmax [1]: 0.071 µg/mL; Tmax [1]: 4 h
0.135 | > 10 | Cc1cc(C(=O)NCc2ccc(CN)c(F)c2)c(C)n1Cc1csc(-c2ccccc2)n1 [Example 45, 2,5-Dimethyl-1-(2-phenyl-thiazol-4-ylmethyl)-1H-pyrrole-3-carboxylic acid 4-aminomethyl-3-fluoro-benzylamide] | Cmax [1]: 0.228 µg/mL; Tmax [1]: 2.58 h
0.452 | > 10 | NCc1ccc(CNC(=O)c2cn(Cc3csc(-c4ccccc4)n3)nc2C(F)(F)F)cc1 [Example 83, 1-(2-Phenyl-thiazol-4-ylmethyl)-3-trifluoromethyl-1H-pyrazole-4-carboxylic acid 4-aminomethyl-benzylamide] | IC50 (thrombin): > 40 µM; IC50 (trypsin): 26.6 µM; IC50 (Factor XIIa): > 8.51 µM; IC50 (plasmin): 27.2 µM
0.004 | 6.31 | Cc1cnn(Cc2ccc(Cn3c(C)cc(C(=O)NCc4c(C)cc(CN)cc4C)c3C)cc2)c1 [Example 101, 2,5-Dimethyl-1-[4-(4-methyl-pyrazol-1-ylmethyl)-benzyl]-1H-pyrrole-3-carboxylic acid 4-aminomethyl-2,6-dimethyl-benzylamide] | Cmax [1]: 0.067 µg/mL; Tmax [1]: 5 h; IC50 (Factor XIIa): > 10 µM
2.58 | > 10 | Cc1cnn(Cc2ccc(Cn3cc(C(=O)NCc4ccc(C5(N)CC5)cc4)nn3)cc2)c1 [Example 110, 1-[4-(4-Methyl-pyrazol-1-ylmethyl)-benzyl]-1H-[1,2,3]triazole-4-carboxylic acid 4-(1-amino-cyclopropyl)-benzylamide] | 
0.001 | > 10 | Cc1cnn(Cc2ccc(Cn3cc(C(=O)NCc4c(C)cc(CN)cc4C)cn3)cc2)c1 [Example 111, 1-[4-(4-Methyl-pyrazol-1-ylmethyl)-benzyl]-1H-pyrazole-4-carboxylic acid 4-aminomethyl-2,6-dimethyl-benzylamide] | 
0.002 | > 10 | Cc1cnn(Cc2ccc(Cn3cnc(C(=O)NCc4c(C)cc(CN)cc4C)c3)cc2)c1 [Example 112, 1-[4-(4-Methyl-pyrazol-1-ylmethyl)-benzyl]-1H-imidazole-4-carboxylic acid 4-aminomethyl-2,6-dimethyl-benzylamide] | 
0.002 | > 10 | Cc1cnn(Cc2ccc(Cn3cc(C(=O)NCc4c(C)cc(CN)cc4C)nn3)cc2)c1 [Example 113, 1-[4-(4-Methyl-pyrazol-1-ylmethyl)-benzyl]-1H-[1,2,3]triazole-4-carboxylic acid 4-aminomethyl-2,6-dimethyl-benzylamide] | 
0.0006 | > 10 | Cc1cnn(Cc2ccc(Cn3cc(C(=O)NCc4c(C)cc(CN)cc4C)c(C)n3)cc2)c1 [Example 114, 3-Methyl-1-[4-(4-methyl-pyrazol-1-ylmethyl)-benzyl]-1H-pyrazole-4-carboxylic acid 4-aminomethyl-2,6-dimethyl-benzylamide] | 
0.008 | > 10 | Cc1cnn(Cc2ccc(Cn3ncc(C(=O)NCc4c(C)cc(CN)cc4C)c3C)cc2)c1 [Example 115, 5-Methyl-1-[4-(4-methyl-pyrazol-1-ylmethyl)-benzyl]-1H-pyrazole-4-carboxylic acid 4-aminomethyl-2,6-dimethyl-benzylamide] | 
11.7 | > 10 | Cc1cnn(Cc2ccc(Cn3nc(C)c(C(=O)NCc4c(C)cc(CN)cc4C)c3C)cc2)c1 [Example 116, 3,5-Dimethyl-1-[4-(4-methyl-pyrazol-1-ylmethyl)-benzyl]-1H-pyrazole-4-carboxylic acid 4-aminomethyl-2,6-dimethyl-benzylamide] | 
0.051 | > 10 | Cc1cnn(Cc2ccc(Cn3cc(C(=O)NCc4ccc(CN)c(F)c4)c(C(F)(F)F)n3)cc2)c1 [Example 117, 1-[4-(4-Methyl-pyrazol-1-ylmethyl)-benzyl]-3-trifluoromethyl-1H-pyrazole-4-carboxylic acid 4-aminomethyl-3-fluoro-benzylamide] | 
0.001 | > 10 | Cc1cnn(Cc2ccc(Cn3cc(C(=O)NCc4c(C)cc(CN)cc4C)c(C(F)(F)F)n3)cc2)c1 [Example 118, 1-[4-(4-Methyl-pyrazol-1-ylmethyl)-benzyl]-3-trifluoromethyl-1H-pyrazole-4-carboxylic acid 4-aminomethyl-2,6-dimethyl-benzylamide] | 
0.009 | > 10 | Cc1cnn(Cc2ccc(Cn3cc(C(=O)NCc4ccc(CN)c(F)c4C)c(C(F)(F)F)n3)cc2)c1 [Example 119, 1-[4-(4-Methyl-pyrazol-1-ylmethyl)-benzyl]-3-trifluoromethyl-1H-pyrazole-4-carboxylic acid 4-aminomethyl-3-fluoro-2-methyl-benzylamide] | IC50 (Factor XIIa): > 40 µM
0.155 | > 10 | CCn1c(C(=O)NCc2ccc(CN)cc2)cc(C)c1Cc1ccc(Cn2cc(C)cn2)cc1 [Example 121, 1-Ethyl-4-methyl-5-[4-(4-methyl-pyrazol-1-ylmethyl)-benzyl]-1H-pyrrole-2-carboxylic acid 4-aminomethyl-benzylamide] | 
0.151 | > 10 | CCn1c(C(=O)NCc2ccc(CN)cc2)cc(C)c1Cc1ccc(Cn2ccccc2=O)cc1 [Example 122, 1-Ethyl-4-methyl-5-[4-(2-oxo-2H-pyridin-1-ylmethyl)-benzyl]-1H-pyrrole-2-carboxylic acid 4-aminomethyl-benzylamide] | 
2.15 | > 10 | CCn1c(C(=O)NCc2ccc(CN)cc2)cc(C)c1Cc1csc(-c2ccccc2)n1 [Example 123, 1-Ethyl-4-methyl-5-(2-phenyl-thiazol-4-ylmethyl)-1H-pyrrole-2-carboxylic acid 4-aminomethyl-benzylamide] | 
0.002 | 0.301 | Cc1ccc2cc(Cn3cc(C(=O)NCc4c(C)cc(CN)cc4C)c(C)n3)ccc2n1 [Example 124, 3-Methyl-1-(2-methyl-quinolin-6-ylmethyl)-1H-pyrazole-4-carboxylic acid 4-aminomethyl-2,6-dimethyl-benzylamide] | IC50 (Factor XIIa): > 40 µM
0.003 | 0.657 | Cc1ccc2cc(Cn3ncc(C(=O)NCc4c(C)cc(CN)cc4C)c3C)ccc2n1 [Example 125, 5-Methyl-1-(2-methyl-quinolin-6-ylmethyl)-1H-pyrazole-4-carboxylic acid 4-aminomethyl-2,6-dimethyl-benzylamide] | IC50 (Factor XIIa): > 40 µM
 | 0.566 | Cc1ccc2cc(Cn3cc(C(=O)NCc4c(C)cc(CN)cc4C)c(C(F)(F)F)n3)ccc2n1 [Example 126, 1-(2-Methyl-quinolin-6-ylmethyl)-3-trifluoromethyl-1H-pyrazole-4-carboxylic acid 4-aminomethyl-2,6-dimethyl-benzylamide] | IC50 (Factor XIIa): > 40 µM
 | > 10 | Cc1ccc2cc(Cn3ncc(C(=O)NCc4c(C)cc(CN)cc4C)c3C(F)(F)F)ccc2n1 [Example 127, 1-(2-Methyl-quinolin-6-ylmethyl)-5-trifluoromethyl-1H-pyrazole-4-carboxylic acid 4-aminomethyl-2,6-dimethyl-benzylamide] | IC50 (Factor XIIa): > 40 µM
0.934 | 2.66 | Cc1ccc2cc(Cn3c(C)cc(C(=O)NCc4c(C)cc(CN)cc4C)c3C)ccc2n1 [Example 128, 2,5-Dimethyl-1-(2-methyl-quinolin-6-ylmethyl)-1H-pyrrole-3-carboxylic acid 4-aminomethyl-2,6-dimethyl-benzylamide] | 
0.024 | > 10 | Cc1cc(CN)cc(C)c1CNC(=O)c1cn(Cc2ccnc(N3CCCC3)c2)nc1C(F)(F)F [Example 129, 1-(2-Pyrrolidin-1-yl-pyridin-4-ylmethyl)-3-trifluoromethyl-1H-pyrazole-4-carboxylic acid 4-aminomethyl-2,6-dimethyl-benzylamide] | 
